The values that follow come from patent EP4624466A1, “DEGRADER FOR DECOMPOSING CMET PROTEIN, AND PHARMACEUTICAL COMPOSITION COMPRISING SAME” (Innocure Therapeutics, Inc., priority 2022, dated 2024).

pIC50: −log10 of the molar value. Read-outs that look alike come from different tables or passages of the source.

For one assay, the system named is MKN-45. The assay can be described thus: Cell viability / antiproliferative assay (WST-8), MKN-45.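 Also: MKN-45 is a human gastric cancer line overexpressing c-MET, growth inhibition read as WST-8 formazan absorbance at 450 nm after 2 h dye incubation.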 The conditions noted are these: read-out: MKN-45 IC50. Background: Tetrazolium dyes change colour on reduction, which living cells bring about.
The next assay has as its target c-MET (Homo sapiens, UniProt P08581). The assay can be described thus: c-MET protein degradation (Simple Western), MKN-45. More on the design: assess the resolution of the compound of the present invention for c-MET expressed in cells; endogenous in cells; host or cells: MKN45 (human gastric cancer). The note with it: c-MET overexpressing gastric cancer cell line MKN-45, treated 24 hours. In kind it is cell-based. As to the method:
In order to assess the resolution of the compound of the present invention for c-MET expressed in cells, cells were dispensed in a 12-well plate at a concentration of 2 × 10^5 cells/well, and then gastric cancer cell lines were treated with samples for 24 hours and lung cancer cell lines were treated for 48 hours. Cell lysates were collected using a scraper on ice, centrifuged at 4°C15,000 rpm for 30 min to obtain a protein-containing supernatant. Protein expression was then measured using the Simple Western Automated Western Blot System Abby instrument using 3 µg of protein for each sample. SDS and heat-induced denaturation proteins were separated by molecular weight, attached to capillary, reacted with anti-c-MET or anti-GAPDH antibodies, which are primary antibodies, and then reacted with HRP-conjugated secondary antibodies, and analyzed the protein expression signal with compass software. Protein expression was normalized based on the expression value of GAPDH, and protein development in each sample was measured as a percentage (%) based on 100% of samples treated with 0.1% DMSO carriers, and DC50 (concentration of a compound where 50% protein inhibition is achieved) was calculated from the change in protein expression amount due to compound treatment.

The next assay has as its system SNU-638. Kind of assay: Cell viability / antiproliferative assay (WST-8), SNU-638. In kind it is cell-based, human. The conditions noted are these: read-out: SNU-638 IC50.
The mark [1] stands for this setting: SNU-638 cells, 72 hours, WST-8, Table 2.
Where [2] appears, read: MKN-45 cells, 72 hours, WST-8, Table 1.

c-MET, sequence (P08581 25-1390): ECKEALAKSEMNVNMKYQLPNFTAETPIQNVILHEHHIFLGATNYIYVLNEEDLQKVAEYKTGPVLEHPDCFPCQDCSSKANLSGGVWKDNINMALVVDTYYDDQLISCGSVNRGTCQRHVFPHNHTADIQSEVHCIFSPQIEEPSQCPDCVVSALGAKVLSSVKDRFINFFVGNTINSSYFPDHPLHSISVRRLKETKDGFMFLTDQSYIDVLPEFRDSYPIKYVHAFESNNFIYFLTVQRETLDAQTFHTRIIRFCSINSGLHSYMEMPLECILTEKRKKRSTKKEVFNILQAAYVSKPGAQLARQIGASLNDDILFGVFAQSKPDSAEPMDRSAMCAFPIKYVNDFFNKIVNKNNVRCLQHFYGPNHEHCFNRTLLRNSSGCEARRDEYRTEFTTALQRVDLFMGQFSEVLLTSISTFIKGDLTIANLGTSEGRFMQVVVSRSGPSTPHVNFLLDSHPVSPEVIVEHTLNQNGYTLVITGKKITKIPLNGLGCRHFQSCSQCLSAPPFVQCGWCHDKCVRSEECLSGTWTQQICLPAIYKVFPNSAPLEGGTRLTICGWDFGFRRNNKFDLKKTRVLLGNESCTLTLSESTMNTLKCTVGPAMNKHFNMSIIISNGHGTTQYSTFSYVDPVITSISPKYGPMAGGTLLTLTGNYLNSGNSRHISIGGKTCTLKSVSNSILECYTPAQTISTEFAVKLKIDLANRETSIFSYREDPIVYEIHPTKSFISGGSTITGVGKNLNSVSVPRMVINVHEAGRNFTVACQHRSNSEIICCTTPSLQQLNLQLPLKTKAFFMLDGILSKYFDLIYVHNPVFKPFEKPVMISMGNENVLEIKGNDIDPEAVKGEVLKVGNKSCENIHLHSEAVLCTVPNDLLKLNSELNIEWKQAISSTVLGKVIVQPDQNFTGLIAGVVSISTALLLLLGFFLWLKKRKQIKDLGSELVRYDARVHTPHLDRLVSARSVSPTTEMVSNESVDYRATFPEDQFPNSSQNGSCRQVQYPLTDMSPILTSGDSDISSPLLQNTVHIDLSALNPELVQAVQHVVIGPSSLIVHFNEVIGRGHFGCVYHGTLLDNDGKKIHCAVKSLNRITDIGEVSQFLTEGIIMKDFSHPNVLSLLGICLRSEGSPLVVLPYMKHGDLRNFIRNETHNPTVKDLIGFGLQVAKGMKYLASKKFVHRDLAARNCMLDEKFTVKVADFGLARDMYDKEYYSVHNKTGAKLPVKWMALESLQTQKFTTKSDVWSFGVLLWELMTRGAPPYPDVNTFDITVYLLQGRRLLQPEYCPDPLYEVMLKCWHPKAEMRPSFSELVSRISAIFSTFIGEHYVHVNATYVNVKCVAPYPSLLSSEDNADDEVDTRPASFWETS
Procedure for SNU-638: c-MET overexpressing human gastric cancer cell lines [MKN45] and [SNU638] were cultured in RPMI medium with 10% fetal bovine serum, penicillin (100U/ml), and streptomycin (100mg/ml), and c-MET exon 14 skipping mutant human gastric cancer cell lines [Hs746T] were cultured in DMEM media. The c-MET overexpressing human lung cancer cell line EBC-1 was cultured in MEM media with the addition of 10% fetal bovine serum, penicillin (100U/ml), and streptomycin (100mg/ml). […] The compound synthesized in accordance with the present invention was prepared with a raw material solution of 10 mM dissolved in DMSO (dimethyl sulfoxide), and was sequentially diluted and processed.
In order to observe the inhibitory activity on cell growth, cells were dispensed in a 96-well plate at a concentration of 5,000 cells/well, and then treated with the compound prepared at various concentrations for 72 hours. The viability of the cells was calculated using GraphicPad Prism 8.0 software by adding 10 ml per well of WST-8 (water soluble tetrazolium salt) sample, which reacts with dehydrogenase present in the electron transport system of mitochondria to produce formazon, incubated for 2 hours, and measured absorbance at 450 nm.

What is called pIC50 is −log10 of the IC50, conventionally taken in molar units. As a reminder, the DC50 is the concentration at which degradation of the target reaches its halfway point. A low value points to a more potent degrader. Regarding `Cn1cc(-c2cnc3c(nnn3C[C@@H]3CN(c4ncc(-c5ccc(CN6CCN(C(=O)CCCCNc7ccc8c(=O)n(C9CCC(=O)NC9=O)ncc8c7)CC6)cc5)cn4)CCO3)n2)cn1` (stereo partly drawn) [ICT-0000924, 3-(6-((5-(4-(4-(2-((S)-2-((5-(1-methyl-1H-pyrazole-4-yl)-1H-[1,2,3]triazolo[4,5-b]pyrazine-1-yl)methyl)morpholino)pyrimidine-5-yl)benzyl)piperazine-1-yl)5-oxopentyl)amino)1-oxopthalazine-2(1H)-yl)piperidine-2,6-dione], the pIC50 with MKN-45 (Homo sapiens, MKN-45, 72 h) is > 7.00; in the assay with SNU-638 (Homo sapiens, SNU-638, 72 h), > 7.00. Further, the DC50 at c-MET (Table 1) was < 100 nM.
For the molecule `Cn1cc(-c2cnc3c(nnn3C[C@@H]3CN(c4ncc(-c5ccc(CN6CCN(C(=O)CCCNc7ccc8c(=O)n(C9CCC(=O)NC9=O)ncc8c7)CC6)cc5)cn4)CCO3)n2)cn1` (stereo partly drawn) [ICT-0000922, 3-{6-[(4-{4-[(4-{2-[(2S)-2-{[5-(1-methyl-1H-pyrazole-4-yl)-1H-[1,2,3]triazolo[4,5-b]pyrazine-1-yl]methyl}morpholine-4-il]pyrimidine-5-yl}phenyl)methyl]piperazine-1-yl}-4-oxobutyl)amino]-1-oxo-1,2-dihydroptalazine-2-yl}piperidine-2,6-dione], the pIC50 in the assay with MKN-45 (Homo sapiens, MKN-45, 72 h) was > 7.00; with SNU-638 (Homo sapiens, SNU-638, 72 h), > 7.00. In addition, the DC50 at c-MET (Table 1) is < 100 nM.
Consider `N#Cc1cccc(-c2ccc(=O)n(Cc3cccc(-c4ncc(OCC5CCN(CCCC#Cc6ccc7c(=O)n(C8CCC(=O)NC8=O)ncc7c6)CC5)cn4)c3)n2)c1` (centres unmarked) [ICT-0001305], for which, in the assay with SNU-638 (setting [1]), the negative logarithm of the IC50 (pIC50) was > 7.00.
Consider `Cc1nn(C2CCC(=O)NC2=O)c(=O)c2ccc(N3CCN(C4CCN(CC(=O)N5CCC(COc6cnc(-c7cccc(Cn8nc(-c9cccc(C#N)c9)ccc8=O)c7)nc6)CC5)CC4)CC3)cc12` (centres unmarked) [ICT-0001255], for which the pIC50 with MKN-45 (Homo sapiens, MKN-45, 72 h) was > 7.00; with SNU-638 (Homo sapiens, SNU-638, 72 h) it was > 7.00. On c-MET (Table 2), the 50% degradation concentration (DC50) is < 100 nM.
As to `Cc1cc2c(=O)n(C3CCC(=O)NC3=O)nc(C)c2cc1N1CCN(CC2CCN(CCN3CCC(COc4cnc(-c5cccc(Cn6nc(-c7cccc(C#N)c7)ccc6=O)c5)nc4)CC3)CC2)CC1` (centres unmarked) [ICT-0001319], the pIC50 in the assay with SNU-638 (setting [1]) is > 7.00.
Turning to “3-(6-(4-((1-(4-(1-(2-((S)-2-((5-(1-methyl-1H-pyrazole-4-yl)-1H-[1,2,3]triazolo[4,5-b]pyrazine-1-yl)methyl)morpholino)pyrimidine-5-il)benzyl)piperidine-4-il)methyl)piperazine-1-yl)piperazine-1-yl)1-oxopthalazine-2(1H)-yl)piperidine-2,6-dione [ICT-0000978]”, the negative-log IC50 (pIC50) in the assay on MKN-45 (setting [2]) was > 7.00. The 50% degradation concentration (DC50) on c-MET (Table 1) was 100 to 1000 nM.
With `Cc1nn(C2CCC(=O)NC2=O)c(=O)c2ccc(NCCCCCC(=O)N3CCC(COc4cnc(-c5cccc(Cn6nc(-c7cccc(C#N)c7)ccc6=O)c5)nc4)CC3)cc12` (centres unmarked) [ICT-0000990], the pIC50 with MKN-45 (Homo sapiens, MKN-45, 72 h) is 6.00 to 7.00. This molecule showed a half-maximal degradation concentration (DC50) at c-MET (Table 2) of 100 to 1000 nM.
For `Cc1nn(C2CCC(=O)NC2=O)c(=O)c2ccc(N3CCC(CN4CCN(C(=O)CN5CCC(COc6cnc(-c7cccc(Cn8nc(-c9cccc(C#N)c9)ccc8=O)c7)nc6)CC5)CC4)CC3)cc12` (centres unmarked) [ICT-0001236], in the assay on MKN-45 (Homo sapiens, MKN-45, 72 h), the negative-log IC50 (pIC50) is > 7.00. The DC50 on c-MET (Table 2) was < 100 nM.
Regarding `N#Cc1cccc(-c2ccc(=O)n(Cc3cccc(-c4ncc(OCC5CCN(C(=O)CCCCN6CCN(c7ccc8c(=O)n(C9CCC(=O)NC9=O)ncc8c7)CC6)CC5)cn4)c3)n2)c1` (centres unmarked) [ICT-0001201, 3-(1-{[3-(5-{[1-(5-{4-[2-(2,6-dioxopiperidin-3-yl)-1-oxo-1,2-dihydropetalazine-6-yl]piperazine-1-yl}pentanoyl)piperidine-4-il]methoxy}pyrimidine-2-yl)phenyl]methyl}6-oxo-1,6-dihydropyridazine-3-yl)benzonitrile], the pIC50 in the assay on MKN-45 (Homo sapiens, MKN-45, 72 h) is > 7.00. Moreover, the DC50 on c-MET (Table 2) was < 100 nM.
As for `Cc1nn(C2CCC(=O)NC2=O)c(=O)c2cc(N3CCN(CC4CCN(C(=O)CN5CCC(COc6cnc(-c7cccc(Cn8nc(-c9cccc(C#N)c9)ccc8=O)c7)nc6)CC5)CC4)CC3)ccc12` (centres unmarked) [ICT-0001195], in the assay with MKN-45 (Homo sapiens, MKN-45, 72 h), the pIC50 was > 7.00. Moreover, the DC50 at c-MET (Table 2) is < 100 nM.
`Cc1nn(C2CCC(=O)NC2=O)c(=O)c2ccc(N3CCC(NC4CCN(CC(=O)N5CCC(COc6cnc(-c7cccc(Cn8nc(-c9cccc(C#N)c9)ccc8=O)c7)nc6)CC5)CC4)CC3)cc12` (centres unmarked) [ICT-0001219]: the pIC50 in the assay on MKN-45 (Homo sapiens, MKN-45, 72 h) is > 7.00. The DC50 on c-MET (Table 2) was < 100 nM.
Regarding `Cn1cc(-c2cnc3c(nnn3C[C@@H]3CN(c4ncc(-c5ccc(CN6CCN(C(=O)CCCNc7cccc8cnn(C9CCC(=O)NC9=O)c(=O)c78)CC6)cc5)cn4)CCO3)n2)cn1` (some centres unmarked) [ICT-0000969], the pIC50 in the assay with MKN-45 (Homo sapiens, MKN-45, 72 h) is > 7.00. In addition, the 50% degradation concentration (DC50) at c-MET (Table 1) was < 100 nM.
Consider `Cc1nn(C2CCC(=O)NC2=O)c(=O)c2ccc(N3CCN(C[C@@H]4CN(CCN5CCC(COc6cnc(-c7cccc(Cn8nc(-c9cccc(C#N)c9)ccc8=O)c7)nc6)CC5)CCO4)CC3)cc12` (some centres unmarked) [ICT-0001315], for which the pIC50 with SNU-638 (setting [1]) was > 7.00.
Turning to `Cn1cc(-c2cnc3c(nnn3C[C@@H]3CN(c4ncc(-c5ccc(CN6CCN(C(=O)CCCCCNc7ccc8c(=O)n(C9CCC(=O)NC9=O)ncc8c7)CC6)cc5)cn4)CCO3)n2)cn1` (stereo partly drawn) [ICT-0000923, 3-{6-[(6-{4-[(4-{2-[(2S)-2-{[5-(1-methyl-1H-pyrazole-4-yl)-1H-[1,2,3]triazolo[4,5-b]pyrazine-1-yl]methyl}morpholine-4-day]pyrimidine-5-yl}phenyl)methyl]piperazine-1-yl}-6-oxohexyl)amino]-1-oxo-1,2-dihydrophthalazine-2-yl}piperidine-2,6-dione], the pIC50 with MKN-45 (Homo sapiens, MKN-45, 72 h) is > 7.00; in the assay on SNU-638 (Homo sapiens, SNU-638, 72 h), > 7.00. For the same molecule, the DC50 at c-MET (Table 1) was < 100 nM.
Regarding `Cn1cc(-c2cnc3c(nnn3C[C@@H]3CN(c4ncc(-c5ccc(CN6CCN(C(=O)CCCCCCNc7ccc8c(=O)n(C9CCC(=O)NC9=O)ncc8c7)CC6)cc5)cn4)CCO3)n2)cn1` (stereo partly drawn) [ICT-0000925, 3-(6-((7-(4-(4-(2-((S)-2-((5-(1-methyl-1H-pyrazole-4-yl)-1H-[1,2,3]triazolo[4,5-b]pyrazine-1-yl)methyl)morpholino)pyrimidine-5-yl)benzyl)piperazine-1-yl)7-oxoheptyl)amino)1-oxopthalazine-2(1H)-yl)piperidine-2,6-dione], the pIC50 was > 7.00 in the assay on MKN-45 (setting [2]) and > 7.00 with SNU-638 (SNU-638 cells, 72 hours, WST-8, Table 1). At c-MET (Table 1), the DC50 was < 100 nM.
As for `N#Cc1cccc(-c2ccc(=O)n(Cc3cccc(-c4ncc(OCC5CCN(CCCCC(=O)N6CCN(c7ccc8c(=O)n(C9CCC(=O)NC9=O)ncc8c7)CC6)CC5)cn4)c3)n2)c1` (centres unmarked) [ICT-0001252], the pIC50 with MKN-45 (Homo sapiens, MKN-45, 72 h) is > 7.00. For the same molecule, at c-MET (Table 2), the DC50 was < 100 nM.
Take `Cc1nn(C2CCC(=O)NC2=O)c(=O)c2cc(N3CCN(CCCCC(=O)N4CCC(COc5cnc(-c6cccc(Cn7nc(-c8cccc(C#N)c8)ccc7=O)c6)nc5)CC4)CC3)ccc12` (centres unmarked) [ICT-0001217]: the pIC50 in the assay on MKN-45 (Homo sapiens, MKN-45, 72 h) was > 7.00. Further, the DC50 on c-MET (Table 2) was < 100 nM.
As for `Cc1nn(C2CCC(=O)NC2=O)c(=O)c2ccc(NCCOCCOCC(=O)N3CCC(COc4cnc(-c5cccc(Cn6nc(-c7cccc(C#N)c7)ccc6=O)c5)nc4)CC3)cc12` (centres unmarked) [ICT-0001087], the pIC50 in the assay with MKN-45 (Homo sapiens, MKN-45, 72 h) is > 7.00. Besides, the DC50 on c-MET (Table 2) is < 100 nM.
As for `Cn1cc(-c2cnc3c(nnn3C[C@@H]3CN(c4ncc(-c5ccc(CN6CCN(C(=O)CCCCCCNc7cccc8cnn(C9CCC(=O)NC9=O)c(=O)c78)CC6)cc5)cn4)CCO3)n2)cn1` (stereo partly drawn) [ICT-0000960, 3-{8-[(7-{4-[(4-{2-[(2S)-2-{[5-(1-methyl-1H-pyrazole-4-yl)-1H-[1,2,3]triazolo[4,5-b]pyrazine-1-yl]methyl}morpholine-4-yl]pyrimidine-5-yl}phenyl)methyl]piperazine-1-yl}-7-oxoheptyl)amino]-1-oxo-1,2-dihydrophthalazine-2-yl}piperidine-2,6-dione], the pIC50 with MKN-45 (Homo sapiens, MKN-45, 72 h) is > 7.00. The DC50 on c-MET (Table 1) was in the range of 100 to 1000 nM.
For the molecule `Cc1nn(C2CCC(=O)NC2=O)c(=O)c2cc(N3CCN(C(=O)CCCCN4CCC(COc5cnc(-c6cccc(Cn7nc(-c8cccc(C#N)c8)ccc7=O)c6)nc5)CC4)CC3)ccc12` (centres unmarked) [ICT-0001251], the pIC50 in the assay on MKN-45 (Homo sapiens, MKN-45, 72 h) was > 7.00. The DC50 at c-MET (Table 2) is < 100 nM.
For `N#Cc1cccc(-c2ccc(=O)n(Cc3cccc(-c4ncc(OCC5CCN(C(=O)CCN6CCN(c7ccc8c(=O)n(C9CCC(=O)NC9=O)ncc8c7)CC6)CC5)cn4)c3)n2)c1` (centres unmarked) [ICT-0001199, 3-(1-{[3-(5-{[1-(3-{4-[2-(2,6-dioxopiperidin-3-yl)-1-oxo-1,2-dihydropthalazine-6-yl]piperazine-1-yl}propanoyl)piperidine-4-il]methoxy}pyrimidin-2-yl)phenyl]methyl}-6-oxo-1,6-dihydropyridazine-3-yl)benzonitrile] the same measures were > 7.00 and < 100 nM.
